In patent publication US11999746B2, “Compounds” (GlaxoSmithKline Intellectual Property Development Limited, priority 2014, dated 2024):

How the values were obtained:
[1] = test system: experimental autoimmune encephalomyelitis (EAE) rats; experiment: Rat experimental autoimmune encephalomyelitis (EAE) model, preventive treatment; type: in vivo; conditions: compound administered from day 0 until day 22
Protocol: A further study was carried out to study the impact of Lp-PLA2 inhibitors on modulating M1/M2 imbalance. In this study, rats were induced to develop experimental autoimmune encephalomyelitis (EAE) by immunization with myelin basic protein (MBP) antigen and treated with a known Lp-PLA2 inhibitor: 5-((9-Methoxy-4-oxo-6,7-dihydro-4H-pyrimido[6,1-a]isoquinolin-2-yl)oxy)-2-(3-(trifluoromethyl)phenoxy)benzonitrile (See PCT application no. PCT/CN2011/001597). In this preventive treatment model, the compound was administered at day 0 (day of immunization) and continued to administer until day 22. The study lasted for 25 days. Rats were subsequently monitored for symptoms of EAE. Rats were immunized with MBP to develop EAE and symptoms were monitored daily. Plasma Lp-PLA2 activity, OxLDL, and LysoPC concentration were determined at different time points through the course of EAE.

[2] = test system: proinflammatory (M1) and anti-inflammatory (M2) markers in splenic and CNS infiltrating macrophages; experiment: Ex vivo analysis of M1 and M2 markers in macrophages of EAE rats by realtime PCR; set-up: species or system rat; conditions: macrophages of compound treated EAE rats, splenic macrophages harvested at day 13 post MBP-immunization
Protocol: Ex vivo analysis of proinflammatory (M1) and anti-inflammatory (M2) markers in control and compound treated EAE rats. Splenic macrophages were harvested at day 13 post MBP-immunization and assayed for expression of a variety of markers by realtime PCR. CNS infiltrating cells were harvested and macrophages were analyzed for expression of M1 and M2 markers by realtime PCR.

[3] = molecular target: T1, recombinant human Lp-PLA2 (Homo sapiens, UniProt Q13093); experiment: (1b) hrThioPAF assay, recombinant human Lp-PLA2; type: biochemical; conditions: Examples 266-412 were tested here, one experiment or average of multiple experiments, read-out: rhLp-PLA2 (pIC50) (converted)
T1 sequence (Q13093 22-441): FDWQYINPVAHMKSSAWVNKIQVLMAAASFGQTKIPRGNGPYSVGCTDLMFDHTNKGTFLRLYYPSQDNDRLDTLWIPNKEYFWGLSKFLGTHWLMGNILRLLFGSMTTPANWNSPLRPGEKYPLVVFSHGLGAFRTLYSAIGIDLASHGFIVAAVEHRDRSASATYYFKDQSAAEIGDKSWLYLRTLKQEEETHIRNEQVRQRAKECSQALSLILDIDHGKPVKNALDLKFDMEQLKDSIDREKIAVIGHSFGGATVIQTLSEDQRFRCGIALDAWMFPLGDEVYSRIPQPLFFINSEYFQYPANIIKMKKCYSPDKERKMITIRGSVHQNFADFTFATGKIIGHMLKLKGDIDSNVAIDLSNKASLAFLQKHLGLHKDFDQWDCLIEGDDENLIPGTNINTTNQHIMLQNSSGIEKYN
Summary of the method: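 Fluorogenic assay: 20 pM rhLp-PLA2 in 50 mM HEPES pH 7.4, 150 mM NaCl, 1 mM CHAPS with 1:3 serially diluted compounds; substrate mix of 40 μM 2-thio-PAF, 40 μM CPM, 400 μM NEM (pre-addition levels). 20 min at 25 °C in the dark; fluorescence ex 380/em 485 nm, pIC50 by curve fitting.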

Lp-PLA2 in human plasma = molecular target: T2, Lp-PLA2 in human plasma (Homo sapiens, UniProt Q13093); experiment: (3b) Lp-PLA2 human plasma alternative Thio-PAF assay; type: biochemical; conditions: (3b) alternative Thio-PAF assay, pooled human plasma; Examples of 266-412 were tested here; read-out: pIC50 in the Lp-PLA2 human plasma assay (converted)
T2 construct: from tissue; host or cells: pooled human plasma
T2 sequence (Q13093 22-441): T1 sequence (Q13093 22-441)
Summary of the method: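 Pooled human plasma was preincubated with compound for 15 min at RT. Substrate solution (2 mM 2-thio-PAF, 52 μM CPM, 2.5 mM NEM in 50 mM HEPES pH 7.4, 150 mM NaCl, 1 mM CHAPS; pre-addition concentrations) was added, and the reaction was quenched with 5% TFA after 3 min. Fluorescence was read at ex 380/em 485 nm and fitted to give pIC50.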

COc1ccc2c(c1)CCn1c-2cc(Oc2ccc(Oc3cccc(C(F)(F)F)c3)c(C#N)c2)nc1=O [5-((9-Methoxy-4-oxo-6,7-dihydro-4H-pyrimido[6,1-a]isoquinolin-2-yl)oxy)-2-(3-(trifluoromethyl)phenoxy)benzonitrile]
plasma Lp-PLA2 activity ([1]; rat EAE plasma): decreased
plasma LysoPC levels ([1]; rat EAE plasma): decreased
clinical disease (symptoms of EAE) ([1]; rats immunized with MBP, study lasted 25 days): reduction in clinical disease
M1 (proinflammatory) markers [2]: decrease
M2 (anti-inflammatory) markers [2]: increase

O=c1nc(OCc2cc(F)c(Oc3cncc(C(F)(F)F)c3)c(F)c2)cc2n1CC1CS(=O)(=O)CCN21 (stereo not drawn) [Example E373, 7-((3,5-Difluoro-4-((5-(trifluoromethyl)pyridin-3-yl)oxy)benzyl)oxy)-3,4,11,11a-tetrahydropyrimido[6′,1′:2,3]imidazo[5,1-c][1,4]thiazin-9(1H)-one 2,2-dioxide]
IC50 [3]: ≤ 10000 nM
IC50 (Lp-PLA2 in human plasma): ≤ 100 nM

N#Cc1cc(COc2cc3n(c(=O)n2)C[C@@H]2C[C@H](O)CN32)ccc1F [Example E382, 2-Fluoro-5-((((7S,8aS)-7-hydroxy-1-oxo-1,6,7,8,8a,9-hexahydropyrrolo[1′,2′:3,4]imidazo[1,2-c]pyrimidin-3-yl)oxy)methyl)benzonitrile]
IC50 [3]: ≤ 10000 nM
IC50 (Lp-PLA2 in human plasma): ≤ 100 nM

O=c1nc(OCc2cc(F)c(Oc3ccnc(C(F)(F)F)c3)c(F)c2)cc2n1C[C@@H]1C[C@H](O)CN21 [Example E383, (7S,8aS)-3-((3,5-Difluoro-4-((2-(trifluoromethyl)pyridin-4-yl)oxy)benzyl)oxy)-7-hydroxy-7,8,8a,9-tetrahydropyrrolo[1′,2′:3,4]imidazo[1,2-c]pyrimidin-1(6H)-one]
IC50 [3]: ≤ 1 nM
IC50 (Lp-PLA2 in human plasma): ≤ 100 nM

O=c1nc(OCc2cc(F)c(Oc3ccnc(C(F)(F)F)c3)c(F)c2)cc2n1C[C@H]1C[C@@H](O)CN21 [Example E384, (7R,8aR)-3-((3,5-Difluoro-4-((2-(trifluoromethyl)pyridin-4-yl)oxy)benzyl)oxy)-7-hydroxy-7,8,8a,9-tetrahydropyrrolo[1′,2′:3,4]imidazo[1,2-c]pyrimidin-1(6H)-one]
IC50 [3]: ≤ 10000 nM
IC50 (Lp-PLA2 in human plasma): ≤ 100 nM

N#Cc1cc(COc2cc3n(c(=O)n2)C[C@H]2C[C@H](N)CN32)ccc1F [Example E386, 5-((((7S,8aR)-7-Amino-1-oxo-1,6,7,8,8a,9-hexahydropyrrolo[1,2′:3,4]imidazo[1,2-c]pyrimidin-3-yl)oxy)methyl)-2-fluorobenzonitrile]
IC50 [3]: ≤ 10000 nM
IC50 (Lp-PLA2 in human plasma): ≤ 100 nM

N[C@@H]1C[C@@H]2Cn3c(cc(OCc4cc(F)c(Oc5ccnc(C(F)(F)F)c5)c(F)c4)nc3=O)N2C1 [Example E387, (7R,8aR)-7-Amino-3-((3,5-difluoro-4-((2-(trifluoromethyl)pyridin-4-yl)oxy)benzyl)oxy)-7,8,8a,9-tetrahydropyrrolo[1′,2′:3,4]imidazo[1,2-c]pyrimidin-1(6H)-one]
IC50 [3]: ≤ 10000 nM
IC50 (Lp-PLA2 in human plasma): ≤ 100 nM

N[C@H]1C[C@@H]2Cn3c(cc(OCc4cc(F)c(Oc5ccnc(C(F)(F)F)c5)c(F)c4)nc3=O)N2C1 [Example E388, (7S,8aR)-7-Amino-3-((3,5-difluoro-4-((2-(trifluoromethyl)pyridin-4-yl)oxy)benzyl)oxy)-7,8,8a,9-tetrahydropyrrolo[1′,2′:3,4]imidazo[1,2-c]pyrimidin-1(6H)-one]
IC50 [3]: ≤ 1 nM
IC50 (Lp-PLA2 in human plasma): ≤ 100 nM

N[C@H]1C[C@H]2Cn3c(cc(OCc4cc(F)c(Oc5ccnc(C(F)(F)F)c5)c(F)c4)nc3=O)N2C1 [Example E390, (7S,8aS)-7-Amino-3-((3,5-difluoro-4-((2-(trifluoromethyl)pyridin-4-yl)oxy)benzyl)oxy)-7,8,8a,9-tetrahydropyrrolo[1′,2′:3,4]imidazo[1,2-c]pyrimidin-1(6H)-one]
IC50 [3]: ≤ 10000 nM
IC50 (Lp-PLA2 in human plasma): ≤ 100 nM

N#Cc1cc(COc2cc3n(c(=O)n2)C[C@@H]2C[C@H](N)CN32)ccc1F [Example E391, 5-((((7S,8aS)-7-Amino-1-oxo-1,6,7,8,8a,9-hexahydropyrrolo[1′,2′:3,4]imidazo[1,2-c]pyrimidin-3-yl)oxy)methyl)-2-fluorobenzonitrile]
IC50 [3]: ≤ 10000 nM
IC50 (Lp-PLA2 in human plasma): ≤ 100 nM

N[C@@H]1C[C@H]2Cn3c(cc(OCc4cc(F)c(Oc5ccnc(C(F)(F)F)c5)c(F)c4)nc3=O)N2C1 [Example E392, (7R,8aS)-7-Amino-3-((3,5-difluoro-4-((2-(trifluoromethyl)pyridin-4-yl)oxy)benzyl)oxy)-7,8,8a,9-tetrahydropyrrolo[1′,2′:3,4]imidazo[1,2-c]pyrimidin-1(6H)-one]
IC50 [3]: ≤ 10000 nM
IC50 (Lp-PLA2 in human plasma): ≤ 100 nM

Cc1ccc(Oc2c(F)cc(COc3cc4n(c(=O)n3)CC3(COC3)N4)cc2F)cn1 [Example E394, 7-((3,5-Difluoro-4-((6-methylpyridin-3-yl)oxy)benzyl)oxy)-1H-spiro[imidazo[1,2-c]pyrimidine-2,3′-oxetan]-5(3H)-one]
IC50 [3]: ≤ 10000 nM
IC50 (Lp-PLA2 in human plasma): ≤ 100 nM

O=c1nc(OCc2cc(F)c(Oc3ccnc(C(F)(F)F)c3)c(F)c2)cc2n1CC1(COC1)N2 [Example E395, 7-((3,5-difluoro-4-((2-(trifluoromethyl)pyridin-4-yl)oxy)benzyl)oxy)-1H-spiro[imidazo[1,2-c]pyrimidine-2,3′-oxetan]-5(3H)-one]
IC50 [3]: 0.794 nM
IC50 (Lp-PLA2 in human plasma): ≤ 100 nM

O=c1nc(OCc2ccc(F)c(F)c2)cc2n1CC1(COC1)N2 [Example E396, 7-((3,4-difluorobenzyl)oxy)-1H-spiro[imidazo[1,2-c]pyrimidine-2,3′-oxetan]-5(3H)-one]
IC50 [3]: ≤ 10000 nM
IC50 (Lp-PLA2 in human plasma): ≤ 100 nM

CN1c2cc(OCc3cc(F)c(Oc4cnn(C)c4)c(F)c3)nc(=O)n2CC12COC2 [Example E397, 7-((3,5-Difluoro-4-((1-methyl-1H-pyrazol-4-yl)oxy)benzyl)oxy)-1-methyl-1H-spiro[imidazo[1,2-c]pyrimidine-2,3′-oxetan]-5(3H)-one]
IC50 [3]: ≤ 10000 nM
IC50 (Lp-PLA2 in human plasma): ≤ 100 nM
